The results in this text go back to article PMC5847527, “Identification of a novel 2-oxindole fluorinated derivative as in vivo antitumor agent for prostate cancer acting via AMPK activation” (Scientific Reports, 2018).

The structures appear in SMILES notation.

Common to all, as to type: cell-based, human
Experiment [1] relates to PTN2, RWPE-1, PC3, DU145 and LNCaP prostate cells. The experiment in a line: Cell viability by MTT assay, statements for the five cell lines together.
Method: We then study the effect of the compounds on the proliferative capacity of PC-3, DU145 and LNCaP prostate cells. We also used the prostate cell lines PTN2 and RWPE-1 which are derived from a histologically normal adult and therefore are considered as normal prostate cells, for comparison. All the compounds were tested at concentrations ranging from 1 to 100 μM.
(A) Normal (PTN2 and RWPE-1) and cancer (PC3,DU145 and LNCaP) prostate cells were treated with different doses of the compounds for 24 hours and cell viability was monitored by MTT assay. […] Values were normalized with the control and represent the mean ± SD of at least three independent experiments. *p < 0.05 and **p < 0.01 compared to control by the Student’s - test.
Human prostate cancer epithelial PC-3, DU145 and LNCaP and human prostate normal RWPE-1 cells were purchased from American Type Culture Collection (ATCC CRL-1435 CRL-1740 and CRL 11609 respectively) (Rockville, MD, USA). The human prostate normal PNT2 cell line was purchased to ECACC (European Collection of Cell cultures, Salisbury, SP4 0JG, UK). Cells were routinely grown in RPMI 1640 medium supplemented with 100 IU/ml penicillin G sodium, 100 µg/ml streptomycin sulfate, 0.25 µg/ml amphotericin B (Invitrogen, Paisley, UK) and 10% fetal calf serum. Cells were used at passages between 10–20. […]
Cell viability was determined by 3-(4,5-dimethylthiazol-2-yl)-2,5-diphenyltetrazolium bromide (MTT) (Sigma-Aldrich) method. […] The optical density in each well was evaluated by measurement of absorbance at 490 and 650 nm using a microplate reader (ELX 800 Bio-Tek Intruments, INC). IC50 values were calculated using GraphPad Prism vs 6.0 (GraphPad Software, Inc, La Jolla, CA, USA). Cell viability was also determined by counting viable and dead cells by Trypan blue staining. Trypan blue positive and negative cells were counted using a Countess^TM automated cell counter (Invitrogen, Carlsbad, CA, USA). Results were expressed in relation to total number of cells counted.
The subject of experiment [2] is DU145 cells. The experiment in a line: Cell viability by MTT assay, DU145. The procedure:
(§1) Figure 3 Comparison of the effect of 2-oxindole fluorinated derivatives on the proliferation of human prostate cancer cells. (A) Normal (PTN2 and RWPE-1) and cancer (PC3,DU145 and LNCaP) prostate cells were treated with different doses of the compounds for 24 hours and cell viability was monitored by MTT assay. […] (C) PC-3, DU145 and LNCaP cells were treated with 25 µM of compound 8c for different times. Values were normalized with the control and represent the mean ± SD of at least three independent experiments. *p < 0.05 and **p < 0.01 compared to control by the Student’s - test.
(§2) Human prostate cancer epithelial PC-3, DU145 and LNCaP and human prostate normal RWPE-1 cells were purchased from American Type Culture Collection (ATCC CRL-1435 CRL-1740 and CRL 11609 respectively) (Rockville, MD, USA). The human prostate normal PNT2 cell line was purchased to ECACC (European Collection of Cell cultures, Salisbury, SP4 0JG, UK). Cells were routinely grown in RPMI 1640 medium supplemented with 100 IU/ml penicillin G sodium, 100 µg/ml streptomycin sulfate, 0.25 µg/ml amphotericin B (Invitrogen, Paisley, UK) and 10% fetal calf serum. Cells were used at passages between 10–20. For treatment experiments, cells were plated and grown over night, the medium was then replaced with serum-free RPMI 1640 for 24 hours and then incubated with different doses of the compounds for the indicated times.
(§3) Cell viability was determined by 3-(4,5-dimethylthiazol-2-yl)-2,5-diphenyltetrazolium bromide (MTT) (Sigma-Aldrich) method. In brief, a total of 5000 cells/well were seeded into 12-well plate in a final volume of 1 mL. After treatments, 20 µl MTT solution (5 mg/ml in PBS) was added to the medium and cells were incubated at 37 °C for 4 h. Then, the supernatant was discarded and isopropanol was added to dissolve the formazan crystals. Treatments were carried out in triplicate. The optical density in each well was evaluated by measurement of absorbance at 490 and 650 nm using a microplate reader (ELX 800 Bio-Tek Intruments, INC). IC50 values were calculated using GraphPad Prism vs 6.0 (GraphPad Software, Inc, La Jolla, CA, USA). Cell viability was also determined by counting viable and dead cells by Trypan blue staining. Trypan blue positive and negative cells were counted using a Countess^TM automated cell counter (Invitrogen, Carlsbad, CA, USA). Results were expressed in relation to total number of cells counted.
(Tetrazolium dyes change colour on reduction, which living cells bring about.)

In experiment [3] the test system is PNT2 cells. Description: Cell viability by MTT assay, PNT2 normal prostate cells. The procedure:
as §1, §2
as §3, with “In brief, a total of 5000 cells/well were seeded into 12-well plate in a final volume of 1 mL. After treatments, 20 µl MTT solution (5 mg/ml in PBS) was added to the medium and cells were incubated at 37 °C for 4 h. Then, the supernatant was discarded and isopropanol was added to dissolve the formazan crystals. Treatments were carried out in triplicate.” left out

Experiment [4] relates to Raptor. The experiment in a line: Raptor phosphorylation on Ser792 by Western blot in PC-3 and LNCaP cells. The conditions noted are these: 25 µM. The procedure:
To further confirm the compound 8c-induced activation of AMPK, PC-3 and LNCaP cells were incubated with the compound for 1 h and 24 hours in the presence of the AMPK inhibitor Dorsomorphin. […] Accordingly, ACC phosphorylation was increased at 1 h and 24 h and prevented by Dorsomorphin in both cell lines. AMPK inhibits mTORC1 through phosphorylation of Raptor on two well-conserved serine residues (ser722 and ser792) inducing cell-cycle arrest in response to an energy stress. To further support the 8c-induced AMPK activation, we determined Raptor phosphorylation on Ser792 in prostate cells.
Figure 5 AMPK activation by compound 8c in prostate cancer cells. (A) PC-3 and LNCaP cells were treated with vehicle, 25 µM compound 8c, 25 µM compound 8c + 5 μM Dorsomorphin (8c + D) or 5 μM Dorsomorphin (D), for 1 hour or 24 hours and levels of the phosphorylated AMPK (pAMPK), phosphorylated ACC (pACC), phosphorylated Raptor (pRaptor) forms and HIF1α were determined by Western blot. Upper panel, representative Western blot of three different experiments. β-tubulin (β-Tub) serves as a loading control. […] (B) Cell viability monitored by MTT assay in PC-3 and LNCaP cells treated with vehicle, 25 µM and 50 μM compound 8c alone or in the presence of 5 μM Dorsomorphin or transfected with control siRNA (siC) or α1AMPK-selective siRNA (siAMPK). […]

For orientation: IC50 means the point on the concentration scale where inhibition reaches its midpoint. `O=C1Nc2ccccc2C1(F)Cc1ccc(-c2ccccc2)o1` (stereo not shown) [Compound 8c, 3-fluoro-3-((5-phenylfuran-2-yl)methyl)indolin-2-one]: the “inhibition of cell viability at 100 µM” value in experiment [1] (100 µM) is “almost totally inhibited cell viability”. The “inhibition of cell proliferation” value in experiment [1] (1–100 µM, dose-dependent, 24 hours) was “effectively inhibited cell proliferation”. The “inhibitory efficacy on cells viability at 50 μM” value is 88% in experiment [2] (DU145, 50 μM) and 56% in experiment [3] (PNT2, 50 μM). In addition, the IC50 was 19 µM in experiment [2] (Homo sapiens, DU-145, DU145, MTT, 24 hours) and 65 µM in experiment [3] (Homo sapiens, PNT2, MTT, 24 hours). Further, the “Raptor phosphorylation on Ser792 (p-Raptor)” value in experiment [4] was “increase in p-Raptor”.
